# Laboratory results: patent US11932612B1, “6-(5-(3-fluorophenyl)-4-phenyl-4H-1,2,4-triazol-3-ylthio)hexanoic acid as an antimicrobial compound” (KING FAISAL UNIVERSITY, priority 2023, dated 2024)
# Tests used:
# Bacillus cereus = test: Agar plate disc-diffusion, antibacterial inhibition zone; format: cell-based; details: nutrient agar, 37° C., 48 h, DMSO zone subtracted
# Protocol: (§1) The agar plate disc-diffusion method was applied. […] The discs were then placed onto the surface of agar plates (nutrient agar for bacteria and Sabouraud's dextrose agar for fungi) seeded with the test organism. Each plate contained 15 mLof the agar medium, previously seeded with 0.2 mL of the broth culture of each organism pregrown for 18 h. The plates were incubated at 37° C. for 48 h, and 72 h for fungi. The inhibition zones was measured in mm. Discs impregnated with DMSO were used as a control, and its inhibition zone was subtracted from the tested compound actual inhibition zone.
# Escherichia coli = test: as above; format: cell-based; details: nutrient agar, 37° C., 48 h, DMSO zone subtracted
# Protocol: as §1
# Pseudomonas aeruginosa = test: as above; format: cell-based; details: nutrient agar, 37° C., 48 h, DMSO zone subtracted
# Protocol: as §1
# Staphylococcus aureus = test: as above; format: cell-based; details: nutrient agar, 37° C., 48 h, DMSO zone subtracted
# Protocol: as §1
# Aspergillus flavus = test: Agar plate disc-diffusion, antifungal inhibition zone; format: cell-based; details: Sabouraud's dextrose agar, 37° C., 72 h, DMSO zone subtracted
# Protocol: as §1
# [1] = system: Chrysosporium keratinophilum; test: as above; format: cell-based; details: Sabouraud's dextrose agar, 37° C., 72 h, DMSO zone subtracted
# Protocol: as §1
# [2] = A = concentration of comp. = 10,000 μL
# [3] = B = concentration of comp. = 30,000 μL
# [4] = C = concentration of comp. = 50,000 μL
smiles,measurement,setting,value
"O=C(O)CCCCCSc1nnc(-c2cccc(F)c2)n1-c1ccccc1 [III, 6-(5-(3-fluorophenyl)-4-phenyl-4H-1,2,4-triazol-3-ylthio)hexanoic acid]","inhibition zone, Bacillus Cereus",Bacillus cereus; [2],26 mm
same,"inhibition zone, Bacillus Cereus",Bacillus cereus; [3],30 mm
same,"inhibition zone, Bacillus Cereus",Bacillus cereus; [4],41 mm
same,"inhibition zone, Escherichia coli",Escherichia coli; [2],27 mm
same,"inhibition zone, Escherichia coli",Escherichia coli; [3],34 mm
same,"inhibition zone, Escherichia coli",Escherichia coli; [4],56 mm
same,"inhibition zone, Pseudomonas aeruginosa",Pseudomonas aeruginosa; [2],24 mm
same,"inhibition zone, Pseudomonas aeruginosa",Pseudomonas aeruginosa; [3],26 mm
same,"inhibition zone, Pseudomonas aeruginosa",Pseudomonas aeruginosa; [4],45 mm
same,"inhibition zone, Staphylococcus aureus",Staphylococcus aureus; [2],22 mm
same,"inhibition zone, Staphylococcus aureus",Staphylococcus aureus; [3],25 mm
same,"inhibition zone, Staphylococcus aureus",Staphylococcus aureus; [4],30 mm
same,melting point,,164 °C
same,"inhibition zone, Aspergillus flavus",Aspergillus flavus; [2],21 mm
same,"inhibition zone, Aspergillus flavus",Aspergillus flavus; [3],27 mm
same,"inhibition zone, Aspergillus flavus",Aspergillus flavus; [4],37 mm
same,"inhibition zone, Chrysosporium keratinophilum",[1]; [2],25 mm
same,"inhibition zone, Chrysosporium keratinophilum",[1]; [3],28 mm
same,"inhibition zone, Chrysosporium keratinophilum",[1]; [4],46 mm
